Laboratory results reported in patent US10071965B2, “Pyridone FabI inhibitors and uses thereof” (priority 2015, dated 2018).
In brackets after ≈: the same amount, converted by molar mass. Several values for one entry are separate records, joined by “and”; a condition that tells them apart may be missing. Equal values may be shown once. Read-outs that look alike come from different tables or passages of the source. Marks after values point to notes of the source that are not given here.

What was measured:
[1] = in vivo; details: female, ICR, mouse, ip
[2] = system: PT166-resistant S. aureus RN4220 mutants; assay: microbe, parasite or virus in culture; format: cell-based; details: Staphylococcus aureus
[3] = system: M. tuberculosis H37Rv; assay: MIC microbroth dilution, M. tuberculosis H37Rv; format: cell-based; details: Mycobacterium tuberculosis
[4] = system: E. coli MG1655; assay: MIC microbroth dilution, E. coli MG1655 with intact AcrAB efflux pump; format: cell-based, Escherichia coli; details: for MIC: Escherichia coli
[5] = target: M. tuberculosis enoyl-ACP reductase InhA (Mycobacterium tuberculosis (strain ATCC 25618 / H37Rv), UniProt P9WGR1); assay: InhA inhibition kinetics; format: biochemical
[6] = system: E. coli MG1655 ΔacrAB; assay: microbe, parasite or virus in culture; format: cell-based, Escherichia coli; details: for MIC: Escherichia coli
[7] = target: ecFabI (Escherichia coli (strain K12), UniProt P0AEK4); assay: ecFabI inhibition kinetics; format: biochemical
[8] = system: B. pseudomallei Bp400; assay: microbe, parasite or virus in culture; format: cell-based; details: Burkholderia pseudomallei
[9] = system: MRSA strain BAA1762; assay: Neutropenic mouse thigh infection model; format: in vivo, Swiss Webster mice; details: for decrease of bacterial burden in the infected thigh: 100 mg/kg dose, MRSA BAA1762, neutropenic mouse
[10] = system: P. mirabilis ATCC35659; assay: MIC microbroth dilution, P. mirabilis ATCC35659; format: cell-based; details: Proteus mirabilis
[11] = target: Francisella tularensis FabI (Francisella tularensis subsp. tularensis (strain SCHU S4 / Schu 4), UniProt Q5NGQ3); assay: biochemical
[12] = system: S. aureus RN4220; assay: MIC microbroth dilution, S. aureus RN4220; format: cell-based, Staphylococcus aureus; details: Staphylococcus aureus
[13] = system: F. tularensis LVS; assay: microbe, parasite or virus in culture; format: cell-based; details: Francisella tularensis; for inhibition at 5 µg/mL: read-out: Francisella tularensis LVS, % inhib.
[14] = target: T1, saFabI (Staphylococcus aureus (strain MRSA252), UniProt Q6GI75); assay: saFabI inhibition kinetics; format: biochemical
[15] = target: T1, saFabI; assay: Jump dilution assay with saFabI; format: biochemical
[16] = target: bpFabI (Burkholderia pseudomallei, UniProt A0A0H3HP34); assay: biochemical
[17] = system: Bt38; assay: microbe, parasite or virus in culture; format: cell-based; details: Burkholderia pseudomallei; for MIC: read-out: Burkholderia pseudomallei MIC (μg/mL) Bt38
[18] = target: YpFabV (Yersinia pestis, UniProt Q8Z9U1); assay: biochemical
[19] = target: bpFabV (Burkholderia pseudomallei, UniProt Q63TE9); format: biochemical; details: read-out: Burkholderia pseudomallei IC50 (μM), bpFabV
[20] = system: Yersinia pestis; assay: microbe, parasite or virus in culture; format: cell-based; details: read-out: Yersinia pestis, % inhib.
[21] = system: B. pseudomallei Bp400; details: B. pseudomallei Bp400, data according to Ref. 69; cited from earlier work
[22] = system: F. tularensis LVS; details: data according to Ref. 69; cited from earlier work
[23] = H37RV, 4-pyridones table, read-out: Mycobacterium tuberculosis MIC (μg/mL) H37Rv
[24] = M. tuberculosis H37Rv, Table 3, read-out: MIC (μm)
[25] = RN4220, S. aureus RN4220, Table 3, read-out: MIC (μm)
[26] = RN4220, S. aureus RN4220, read-out: MIC
[27] = read-out: MIC (μm), F. tularensis LVS, Table 3
[28] = Ki^app (nM), saFabI, [S]/KS = 2
[29] = [S]/KS = 0.19, binds E-NAD+ binary complex, single point progress curve analysis, read-out: Ki^app
[30] = binds E-NAD+ binary complex, single point progress curve analysis, read-out: Ki
[31] = H37RV, 2-pyridones table, read-out: Mycobacterium tuberculosis MIC (μg/mL) H37Rv
[32] = read-out: Francisella tularensis MIC (μg/mL) LVS, 2-pyridones table
[33] = Staphylococcus aureus Ki (in brackets under IC50), 2-pyridones table
[34] = E. coli MG1655, Table 3, read-out: MIC (μm)

## CCCCCCc1cc(=O)c(Oc2ccccc2C)cn1C [PT166]
[1]; 100 mg/kg
  AUC(0-t): 53 µg·h/mL
  Cmax: 45.9 µg/mL
  Tmax: 0.25 h
  half-life: 2.7 h
[2]; read-out: MIC μm, strain 166R.1, FabI A95V
  MIC: 8.8 µM (≈ 2.63 µg/mL)
[2]; read-out: MIC μm, strain 166R.2, FabI A95V
  MIC: 8.8 µM (≈ 2.63 µg/mL)
[2]; read-out: MIC μm, strain 166R.3, FabI A95V and F252L
  MIC: 8.8 µM (≈ 2.63 µg/mL)
[2]; read-out: MIC μm, strain 166R.4, FabI A95V and E71D
  MIC: 8.8 µM (≈ 2.63 µg/mL)
[2]; read-out: MIC μm, strain 166R.5, no change in fabI
  MIC: 17.6 µM (≈ 5.27 µg/mL)
[3]; [23]
  MIC: 3.13 µg/mL
[3]; H37RV, M. tuberculosis, read-out: MIC, in vitro anti-mycobacterial activity
  MIC: 10.5 µM
[3]; [24]
  MIC: 10.5 µM
[4]; MG1655, 4-pyridones table, in brackets, read-out: MIC for MG1655 with intact efflux pump
  MIC: > 128 mg/L
[4]; MG1655, Table 2 footnote e, read-out: MIC against E. coli MG1655 with the intact AcrAB efflux pump
  MIC: > 425 µM
[5]
  IC50: 0.0286 µM
  Ki: 0.022 µM
[6]; 4-pyridones table
  Escherichia coli MIC (μg/mL) MG1655 ΔacrAB: 2 µg/mL
[6]; MG1655
  MIC: 6.7 µM (≈ 2.01 µg/mL)
[6]; MG1655, read-out: MIC (μm)
  MIC: 6.7 µM (≈ 2.01 µg/mL)
[6]; relative to CG400549
  lower MIC against E. coli MG1655 lacking AcrAB: > 50 fold
[7]; Ki^app (nM), [S]/KS = 0.19
  Ki: 8.5 ± 0.2 nM
[8]; BP400, read-out: Burkholderia pseudomallei MIC (μg/mL) Bp400
  MIC: 64 µg/mL
[8]; BP400, read-out: MIC (μm)
  MIC: 214 µM
[9]
  decrease of bacterial burden in the infected thigh: 2.8 log cfu/g tissue
[10]; ATCC35659, read-out: MIC (μm)
  MIC: 214 µM (≈ 64 µg/mL)
[11]
  IC50: 0.024 µM
[12]; RN4220, 4-pyridones table, read-out: Staphylococcus aureus MIC (μg/mL) RN4220
  MIC: 0.24 µg/mL
[12]; [25]
  MIC: 0.8 µM
[12]; [26]
  MIC: 0.8 µM
[12]; RN4220, strain RN4220 (parent), Table 4, read-out: MIC μm
  MIC: 0.8 µM
[12]; RN4220, text, read-out: MIC against Staphylococcus aureus strain RN4220
  MIC: 0.24 µg/mL
[13]; [27]
  MIC: 0.4 µM
[14]; Ki (nM), saFabI
  Ki: 2.7 ± 0.6 nM
[14]; Ki, saFabI
  Ki: 2.7 nM
[14]; [28]
  Ki: 10.1 ± 2.1 nM
[14]; Staphylococcus aureus Ki (nM), 4-pyridones table
  Ki: 2.7 nM

## Oc1cc(Cl)ccc1Oc1ccccc1 [PT52]
[15]; preincubation with NADP+ and saFabI, jump dilution, read-out: residence time tR
  residence time: 30 min
[6]; MG1655
  MIC: 0.1 µM (≈ 0.0221 µg/mL)
[7]; [29]
  Ki: 26.9 nM
[7]; [30]
  Ki: 0.1 nM

## CCCCCCc1ccn(Cc2cccc(N)c2C)c(=O)c1 [PT173]
[3]; [31]
  MIC: 50 µg/mL
[5]
  IC50: > 3.2 µM
[6]; 2-pyridones table
  Escherichia coli MIC (μg/mL) MG1655 ΔacrAB: >425 µg/mL
[6]; MG1655
  MIC: > 425 µM
[16]
  IC50: 0.46 ± 0.01 µM
[7]; Ki^app (nM), [S]/KS = 0.19
  Ki: 246 ± 10.1 nM
[17]
  MIC: 36.3 µg/mL (≈ 122 µM)
[11]
  IC50: 0.083 ± 0.015 µM
[12]; [26]
  MIC: 6.7 µM
[13]; [32]
  MIC: 3.57 µg/mL
[14]
  IC50: 0.068 ± 0.014 µM
[14]; Ki (nM), saFabI
  Ki: 2 ± 0.4 nM
[14]; Ki, saFabI
  Ki: 1.97 nM
[14]; [28]
  Ki: 7.3 ± 1.5 nM
[14]; [33]
  Ki: 2 ± 0.4 nM

## CCCCCCc1ccn(Cc2ccc([N+](=O)[O-])cc2)c(=O)c1 [PT424]
[18]
  Ki: 11 µM
[14]
  IC50: 1.5 ± 0.2 µM

## CCCCCCc1ccn(Cc2ccccc2C)c(=O)c1 [PT171]
[3]; [31]
  MIC: 25 µg/mL
[5]
  IC50: 0.13 ± 0.021 µM
[16]
  IC50: ~0.4 µM
[7]; Ki^app (nM), [S]/KS = 0.19
  Ki: 116 ± 4.6 nM
[17]
  MIC: 154 µg/mL (≈ 542 µM)
[11]
  IC50: 0.083 ± 0.032 µM
[12]; RN4220, 2-pyridones table, read-out: Staphylococcus aureus MIC (μg/mL) RN4220
  MIC: 5 µg/mL
[13]; [32]
  MIC: 3.65 µg/mL
[14]
  IC50: 0.15 ± 0.022 µM
[14]; Ki (nM), saFabI
  Ki: 11.9 ± 1.8 nM
[14]; [28]
  Ki: 44.3 ± 6.6 nM
[14]; [33]
  Ki: 11.9 ± 1.8 nM

## Cc1c(N)cccc1Cn1ccc(OCCc2cccs2)cc1=O [CG400549, reference compound]
[3]; [24]
  MIC: > 300 µM
[4]; E. coli versus S. aureus, Table 3
  lower antibacterial activity: > 64 fold
[4]; [34]
  MIC: > 375 µM
[15]; preincubation with NADPH and saFabI
  off kinetics in jump dilution curve: rapid off kinetics
[5]
  Ki: 0.582 µM
[6]; MG1655
  MIC: > 375 µM
[6]; MG1655, read-out: MIC (μm)
  MIC: > 375 µM
[8]; BP400, read-out: MIC (μm)
  MIC: 376 µM
[10]; P. mirabilis ATCC35659, read-out: MIC (μm)
  MIC: > 750 µM
[12]; [25]
  MIC: 5.9 µM
[12]; [26]
  MIC: 5.9 µM
[13]; [27]
  MIC: 5.9 µM
[14]; relative to PT173
  affinity improvement for saFabI: 1.5 fold

## CCCCCCc1cc(=O)c(Oc2ccc(N)cc2)cn1C [PT157]
[19]
  IC50: 1 µM and 0.87 µM
[3]; [23]
  MIC: 50 µg/mL
[18]
  IC50: 0.13 µM
[5]
  IC50: 0.424 µM

## CCCCCCc1cc(=O)c(Oc2ccc([N+](=O)[O-])cc2)cn1C [PT156]
[19]
  IC50: 0.56 ± 0.1 µM
[3]; [23]
  MIC: 50 µg/mL
[18]
  IC50: 0.18 µM
[5]
  IC50: 0.407 µM
[16]
  IC50: 0.96 ± 0.1 µM
[17]; read-out: Bt38, % inhib.
  inhibition at 40 µg/mL: 43%
[20]
  inhibition at 40 µg/mL: 29%
[13]
  inhibition at 5 µg/mL: 88%

## CCc1ccc(Oc2ccccc2)c(O)c1 [PT01, 5-ethyl-2-phenoxyphenol]
[3]; [24]
  MIC: 72.9 µM
[4]; [34]
  MIC: 18.7 µM
[6]; MG1655
  MIC: 0.6 µM (≈ 0.129 µg/mL)
[6]; MG1655, read-out: MIC (μm)
  MIC: 0.6 µM (≈ 0.129 µg/mL)
[21]
  MIC (μM): 326.7^c μM
[12]; [25]
  MIC: 2.3 µM
[12]; [26]
  MIC: 2.3 µM
[22]
  MIC (μM): 0.1^c μM

## CCCCCCc1cc(=O)c(Oc2ccc(N)cc2C)cn1C [PT155]
[19]
  IC50: 3 ± 0.6 µM
[3]; [23]
  MIC: 6.25 µg/mL
[18]
  IC50: > 50 µM
[5]
  IC50: 0.107 µM
[16]
  IC50: 0.14 µM
[17]; read-out: Bt38, % inhib.
  inhibition at 20 µg/mL: 90%
[20]
  inhibition at 40 µg/mL: 26%
[11]
  IC50: 0.053 µM
[13]
  inhibition at 5 µg/mL: 91%

## Cc1onc(-c2ccccc2)c1C(=O)N[C@@H]1C(=O)N2[C@@H]1SC(C)(C)[C@@H]2C(=O)O [oxacillin]
[9]; MRSA BAA1762, neutropenic mouse thigh, FIG. 8
  in vivo antibacterial efficacy: no in vivo antibacterial efficacy

## CCCCCCc1ccc(Oc2ccccc2)c(O)c1 [PT04, 5-hexyl-2-phenoxyphenol, reference compound]
[1]; 200 mg/kg
  AUC(0-t): 11.8 µg·h/mL
  Cmax: 5.1 µg/mL
  Tmax: 1 h
  half-life: 4.5 h
[6]; MG1655
  MIC: 14.8 µM (≈ 4 µg/mL)
[7]; [29]
  Ki: 32.2 nM
[7]; [30]
  Ki: 0.2 nM
[9]
  decrease of bacterial burden in the infected thigh: 0.9 log cfu/g tissue
